Reference: ChEMBL document CHEMBL3822423 (J Med Chem, 2016)
Values after ≈ are worked out from the molar mass of the structure shown. Active and inactive are the calls of the source. The rule behind the calls is not given here.

Columns and labels:
Assay type in all cases: functional
[1] = test system: Bacillus; assay: Antibacterial activity against Bacillus proteus ATCC 13315 after 18 to 24 hrs
[2] = test system: Eberthella typhosa; assay: (§1) Antibacterial activity against Eberthella typhosa ATCC 14028 after 18 to 24 hrs
[3] = test system: Micrococcus luteus; assay: Antibacterial activity against Micrococcus luteus ATCC 4698 after 18 to 24 hrs; conditions: NCTC 2665
[4] = test system: Escherichia coli; assay: Antibacterial activity against Escherichia coli ATCC 25922 after 18 to 24 hrs
[5] = test system: Bacillus spizizenii; assay: Antibacterial activity against Bacillus subtilis ATCC 6633 after 18 to 24 hrs
[6] = test system: Staphylococcus aureus; assay: Antibacterial activity against Staphylococcus aureus ATCC 25923 after 18 to 24 hrs
[7] = test system: Pseudomonas aeruginosa; assay: Antibacterial activity against Pseudomonas aeruginosa ATCC 9027 after 18 to 24 hrs
[8] = test system: Staphylococcus aureus; assay: Antibacterial activity against methicillin-resistant Staphylococcus aureus N315 after 18 to 24 hrs
[9] = as §1

| SMILES | MIC [1] | MIC [2] | MIC [3] | MIC [4] [µg/mL] | MIC [5] | MIC [6] | MIC [7] | MIC [8] | MIC [9] [µg/mL] |
| --- | --- | --- | --- | --- | --- | --- | --- | --- | --- |
| CCn1cc(C(C)=O)c(=O)c2cc(N3CCCCC3)c(Cl)cc21 | 171 µg/mL (≈ 513 µM) | inactive | 37.3 µg/mL (≈ 112 µM) | 13.3 (≈ 40 µM) | 35.4 µg/mL (≈ 106 µM) | 37.3 µg/mL (≈ 112 µM) | 42.7 µg/mL (≈ 128 µM) | 128 µg/mL (≈ 385 µM) | – |
| CCn1cc(-c2csc(N)n2)c(=O)c2cc(N3CCOCC3)c(Cl)cc21 | inactive | – | 128 µg/mL (≈ 327 µM) | 128 (≈ 327 µM) | 255 µg/mL (≈ 653 µM) | 0.8 µg/mL (≈ 2.05 µM) | 170 µg/mL (≈ 435 µM) | 255 µg/mL (≈ 653 µM) | 95.7 (≈ 245 µM) |
| CCn1cc(C(C)=O)c(=O)c2cc(F)c(N3CCCCC3)cc21 | 20.3 µg/mL (≈ 64.2 µM) | – | 10.1 µg/mL (≈ 31.9 µM) | 40.6 (≈ 128 µM) | 12.7 µg/mL (≈ 40.1 µM) | 8.9 µg/mL (≈ 28.1 µM) | 22.8 µg/mL (≈ 72.1 µM) | 17.8 µg/mL (≈ 56.3 µM) | 121 (≈ 383 µM) |
| CCn1cc(-c2csc(N)n2)c(=O)c2ccc(C(F)(F)F)cc21 | 13.3 µg/mL (≈ 39.2 µM) | – | inactive | 5.3 (≈ 15.6 µM) | 63.9 µg/mL (≈ 188 µM) | 128 µg/mL (≈ 377 µM) | 13.3 µg/mL (≈ 39.2 µM) | 53.2 µg/mL (≈ 157 µM) | 1.7 (≈ 5.01 µM) |
| CCn1cc(C(C)=O)c(=O)c2cc(F)c(N3CCOCC3)cc21 | 2.7 µg/mL (≈ 8.48 µM) | – | 128 µg/mL (≈ 402 µM) | 256 (≈ 804 µM) | inactive | 53.3 µg/mL (≈ 167 µM) | 256 µg/mL (≈ 804 µM) | 256 µg/mL (≈ 804 µM) | 2.3 (≈ 7.22 µM) |
| CCn1cc(-c2csc(N)n2)c(=O)c2cc(N3CCN(C(=O)OC(C)(C)C)CC3)c(Cl)cc21 | 32 µg/mL (≈ 65.3 µM) | inactive | 53.2 µg/mL (≈ 109 µM) | 10.7 (≈ 21.8 µM) | 21.3 µg/mL (≈ 43.5 µM) | 128 µg/mL (≈ 261 µM) | 8 µg/mL (≈ 16.3 µM) | 32 µg/mL (≈ 65.3 µM) | – |
| CCn1cc(-c2csc(N)n2)c(=O)c2cc(F)cc(F)c21 | inactive | inactive | 256 µg/mL (≈ 833 µM) | 64 (≈ 208 µM) | inactive | inactive | inactive | inactive | – |
| CCn1cc(-c2csc(N)n2)c(=O)c2cc(Cl)cc(Cl)c21 | 3.3 µg/mL (≈ 9.7 µM) | – | 16 µg/mL (≈ 47 µM) | 21.2 (≈ 62.3 µM) | 2.7 µg/mL (≈ 7.94 µM) | 3 µg/mL (≈ 8.82 µM) | 2.3 µg/mL (≈ 6.76 µM) | inactive | 2.7 (≈ 7.94 µM) |
| CCn1cc(C(C)=O)c(=O)c2cc(F)c(N3CCCC3)cc21 | 33.1 µg/mL (≈ 109 µM) | – | 244 µg/mL (≈ 808 µM) | 43.3 (≈ 143 µM) | 244 µg/mL (≈ 809 µM) | 5.1 µg/mL (≈ 16.9 µM) | 12.7 µg/mL (≈ 42 µM) | 50.9 µg/mL (≈ 168 µM) | 122 (≈ 404 µM) |
| O=C(N[C@H](CO)[C@H](O)c1ccc([N+](=O)[O-])cc1)C(Cl)Cl [CHLORAMPHENICOL] | 32 µg/mL (≈ 99 µM) | – | 13.3 µg/mL (≈ 41.2 µM) | 13.8 (≈ 42.7 µM) | 26.6 µg/mL (≈ 82.3 µM) | 16 µg/mL (≈ 49.5 µM) | 32 µg/mL (≈ 99 µM) | 21.3 µg/mL (≈ 65.9 µM) | 26.6 (≈ 82.3 µM) |
| CCn1cc(-c2csc(N)n2)c(=O)c2cc(N3CCCCC3)c(Cl)cc21 | 34.4 µg/mL (≈ 88.4 µM) | – | 49 µg/mL (≈ 126 µM) | 118 (≈ 303 µM) | 19.6 µg/mL (≈ 50.4 µM) | 61.2 µg/mL (≈ 157 µM) | 34.4 µg/mL (≈ 88.4 µM) | 24.6 µg/mL (≈ 63.3 µM) | 17.2 (≈ 44.2 µM) |
| CCn1cc(-c2csc(N)n2)c(=O)c2cc(OC)ccc21 | 2.7 µg/mL (≈ 8.96 µM) | – | 42.7 µg/mL (≈ 142 µM) | 13.3 (≈ 44.1 µM) | 10.7 µg/mL (≈ 35.5 µM) | 18.8 µg/mL (≈ 62.4 µM) | 21.3 µg/mL (≈ 70.7 µM) | 256 µg/mL (≈ 849 µM) | 8 (≈ 26.5 µM) |
| CCn1cc(-c2csc(N)n2)c(=O)c2cc(C)ccc21 | 0.8 µg/mL (≈ 2.8 µM) | – | 5.4 µg/mL (≈ 18.9 µM) | 4.7 (≈ 16.5 µM) | 64.4 µg/mL (≈ 226 µM) | 2.4 µg/mL (≈ 8.41 µM) | 2.7 µg/mL (≈ 9.46 µM) | 129 µg/mL (≈ 451 µM) | 24.1 (≈ 84.5 µM) |
| CCn1cc(C(C)=O)c(=O)c2cc(F)c(N3CCN(C(=O)OC(C)(C)C)CC3)cc21 | 16 µg/mL (≈ 38.3 µM) | – | inactive | 128 (≈ 307 µM) | 21.3 µg/mL (≈ 51 µM) | 16 µg/mL (≈ 38.3 µM) | inactive | 64 µg/mL (≈ 153 µM) | 42.7 (≈ 102 µM) |
